According to ChEMBL document CHEMBL5291721, “A preclinical secondary pharmacology resource illuminates target-adverse drug reaction associations of marketed drugs” (Nat Commun, 2023):

Key:
[1] = biological target: T1, Alpha-2A adrenergic receptor (Homo sapiens, UniProt P08913); format: functional, cell-based
T1 sequence (P08913 whole entry): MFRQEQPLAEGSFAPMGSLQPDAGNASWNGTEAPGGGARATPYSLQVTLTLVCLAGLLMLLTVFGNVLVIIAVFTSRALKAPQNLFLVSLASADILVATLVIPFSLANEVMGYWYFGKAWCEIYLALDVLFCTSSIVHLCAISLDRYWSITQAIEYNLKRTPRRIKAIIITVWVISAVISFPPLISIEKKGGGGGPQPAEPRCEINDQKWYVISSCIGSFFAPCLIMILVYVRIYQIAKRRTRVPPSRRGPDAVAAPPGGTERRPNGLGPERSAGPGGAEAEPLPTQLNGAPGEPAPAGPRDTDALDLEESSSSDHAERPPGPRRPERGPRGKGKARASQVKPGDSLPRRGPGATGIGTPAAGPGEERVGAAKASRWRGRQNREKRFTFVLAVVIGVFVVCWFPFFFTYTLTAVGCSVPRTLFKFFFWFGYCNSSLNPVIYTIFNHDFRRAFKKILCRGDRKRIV

[2] = biological target: T2, Muscarinic acetylcholine receptor M1 (Homo sapiens, UniProt P11229); format: functional
T2 sequence (P11229 whole entry): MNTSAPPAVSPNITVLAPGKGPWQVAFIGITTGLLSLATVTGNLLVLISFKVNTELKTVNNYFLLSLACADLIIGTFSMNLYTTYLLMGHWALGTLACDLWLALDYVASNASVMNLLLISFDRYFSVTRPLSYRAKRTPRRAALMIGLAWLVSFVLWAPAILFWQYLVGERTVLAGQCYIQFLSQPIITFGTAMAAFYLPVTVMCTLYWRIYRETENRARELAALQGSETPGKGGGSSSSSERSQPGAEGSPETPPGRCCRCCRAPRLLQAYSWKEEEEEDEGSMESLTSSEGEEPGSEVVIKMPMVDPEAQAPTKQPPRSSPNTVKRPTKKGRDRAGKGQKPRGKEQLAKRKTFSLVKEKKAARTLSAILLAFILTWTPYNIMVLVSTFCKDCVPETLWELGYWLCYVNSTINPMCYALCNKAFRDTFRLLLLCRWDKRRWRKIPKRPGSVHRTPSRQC

[3] = biological target: cGMP-inhibited 3',5'-cyclic phosphodiesterase 3A (Homo sapiens, UniProt Q14432); format: functional
[4] = biological target: Gamma-aminobutyric acid receptor subunit alpha-1 (Rattus norvegicus, UniProt P62813)
[5] = biological target: T3, 5-hydroxytryptamine receptor 3A (Homo sapiens, UniProt P46098); format: functional
T3 sequence (P46098 whole entry): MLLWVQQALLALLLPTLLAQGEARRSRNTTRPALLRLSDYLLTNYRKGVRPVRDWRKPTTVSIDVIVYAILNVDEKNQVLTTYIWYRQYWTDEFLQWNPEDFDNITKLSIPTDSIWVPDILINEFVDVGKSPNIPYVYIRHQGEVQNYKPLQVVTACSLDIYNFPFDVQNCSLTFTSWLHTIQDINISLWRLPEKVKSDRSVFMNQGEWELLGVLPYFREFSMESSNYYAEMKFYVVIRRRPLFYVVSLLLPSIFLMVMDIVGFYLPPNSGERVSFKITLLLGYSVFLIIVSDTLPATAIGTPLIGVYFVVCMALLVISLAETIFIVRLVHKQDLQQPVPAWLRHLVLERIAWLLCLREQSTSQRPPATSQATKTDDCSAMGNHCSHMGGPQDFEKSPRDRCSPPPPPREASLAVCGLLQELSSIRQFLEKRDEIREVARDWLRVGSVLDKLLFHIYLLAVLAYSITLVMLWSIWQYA

Vasopressin V2 receptor = Vasopressin V2 receptor (Homo sapiens, UniProt P30518)
Endothelin-1 receptor = biological target: T4, Endothelin-1 receptor (Homo sapiens, UniProt P25101)
T4 sequence (P25101 whole entry): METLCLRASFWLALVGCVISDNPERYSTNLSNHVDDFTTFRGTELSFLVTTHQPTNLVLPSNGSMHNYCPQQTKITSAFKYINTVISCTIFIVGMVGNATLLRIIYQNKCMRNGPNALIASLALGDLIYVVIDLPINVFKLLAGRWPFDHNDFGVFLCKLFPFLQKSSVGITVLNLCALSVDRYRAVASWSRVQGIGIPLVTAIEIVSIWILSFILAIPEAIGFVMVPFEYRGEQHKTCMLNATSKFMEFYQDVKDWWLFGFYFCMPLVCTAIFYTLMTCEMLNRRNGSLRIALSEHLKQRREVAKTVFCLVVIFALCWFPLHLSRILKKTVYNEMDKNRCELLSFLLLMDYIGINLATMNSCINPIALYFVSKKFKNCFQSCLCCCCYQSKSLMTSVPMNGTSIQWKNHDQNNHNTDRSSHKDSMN

Adenosine receptor A3 = biological target: T5, Adenosine receptor A3 (Homo sapiens, UniProt P0DMS8)
T5 sequence (P0DMS8 whole entry): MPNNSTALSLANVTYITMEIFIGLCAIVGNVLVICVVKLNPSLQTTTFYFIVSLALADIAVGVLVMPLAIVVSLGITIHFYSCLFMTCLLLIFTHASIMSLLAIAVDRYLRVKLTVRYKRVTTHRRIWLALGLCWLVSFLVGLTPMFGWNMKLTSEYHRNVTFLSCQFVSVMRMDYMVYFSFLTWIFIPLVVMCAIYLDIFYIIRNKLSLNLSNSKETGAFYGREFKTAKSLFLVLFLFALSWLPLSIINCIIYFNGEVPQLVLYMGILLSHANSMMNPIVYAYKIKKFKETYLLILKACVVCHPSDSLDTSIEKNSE

Motilin receptor = Motilin receptor (Homo sapiens, UniProt O43193)
Further: assay procedure not described here.

Vasopressin V2 receptor, sequence (P30518 whole entry): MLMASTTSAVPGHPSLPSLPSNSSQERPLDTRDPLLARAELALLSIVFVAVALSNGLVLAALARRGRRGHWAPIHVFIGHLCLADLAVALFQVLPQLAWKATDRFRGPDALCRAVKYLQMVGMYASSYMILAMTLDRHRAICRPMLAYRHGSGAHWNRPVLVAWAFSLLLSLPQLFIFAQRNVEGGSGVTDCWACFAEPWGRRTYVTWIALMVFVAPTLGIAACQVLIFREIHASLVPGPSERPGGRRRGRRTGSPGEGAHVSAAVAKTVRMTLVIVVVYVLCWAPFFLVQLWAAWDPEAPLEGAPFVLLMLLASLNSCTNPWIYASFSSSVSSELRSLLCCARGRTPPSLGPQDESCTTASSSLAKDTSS
Motilin receptor, sequence (O43193 whole entry): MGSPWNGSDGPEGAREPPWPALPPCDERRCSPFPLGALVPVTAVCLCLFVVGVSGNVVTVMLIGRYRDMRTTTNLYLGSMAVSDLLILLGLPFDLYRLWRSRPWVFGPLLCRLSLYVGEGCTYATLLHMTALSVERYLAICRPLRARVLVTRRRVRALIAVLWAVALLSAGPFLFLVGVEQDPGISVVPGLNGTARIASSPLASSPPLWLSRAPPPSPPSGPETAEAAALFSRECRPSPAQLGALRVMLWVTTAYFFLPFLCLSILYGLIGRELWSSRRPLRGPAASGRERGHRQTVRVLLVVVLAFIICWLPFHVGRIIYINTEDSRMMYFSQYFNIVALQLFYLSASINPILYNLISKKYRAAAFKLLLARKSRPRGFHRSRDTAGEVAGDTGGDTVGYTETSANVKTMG
cGMP-inhibited 3',5'-cyclic phosphodiesterase 3A, sequence (Q14432 whole entry): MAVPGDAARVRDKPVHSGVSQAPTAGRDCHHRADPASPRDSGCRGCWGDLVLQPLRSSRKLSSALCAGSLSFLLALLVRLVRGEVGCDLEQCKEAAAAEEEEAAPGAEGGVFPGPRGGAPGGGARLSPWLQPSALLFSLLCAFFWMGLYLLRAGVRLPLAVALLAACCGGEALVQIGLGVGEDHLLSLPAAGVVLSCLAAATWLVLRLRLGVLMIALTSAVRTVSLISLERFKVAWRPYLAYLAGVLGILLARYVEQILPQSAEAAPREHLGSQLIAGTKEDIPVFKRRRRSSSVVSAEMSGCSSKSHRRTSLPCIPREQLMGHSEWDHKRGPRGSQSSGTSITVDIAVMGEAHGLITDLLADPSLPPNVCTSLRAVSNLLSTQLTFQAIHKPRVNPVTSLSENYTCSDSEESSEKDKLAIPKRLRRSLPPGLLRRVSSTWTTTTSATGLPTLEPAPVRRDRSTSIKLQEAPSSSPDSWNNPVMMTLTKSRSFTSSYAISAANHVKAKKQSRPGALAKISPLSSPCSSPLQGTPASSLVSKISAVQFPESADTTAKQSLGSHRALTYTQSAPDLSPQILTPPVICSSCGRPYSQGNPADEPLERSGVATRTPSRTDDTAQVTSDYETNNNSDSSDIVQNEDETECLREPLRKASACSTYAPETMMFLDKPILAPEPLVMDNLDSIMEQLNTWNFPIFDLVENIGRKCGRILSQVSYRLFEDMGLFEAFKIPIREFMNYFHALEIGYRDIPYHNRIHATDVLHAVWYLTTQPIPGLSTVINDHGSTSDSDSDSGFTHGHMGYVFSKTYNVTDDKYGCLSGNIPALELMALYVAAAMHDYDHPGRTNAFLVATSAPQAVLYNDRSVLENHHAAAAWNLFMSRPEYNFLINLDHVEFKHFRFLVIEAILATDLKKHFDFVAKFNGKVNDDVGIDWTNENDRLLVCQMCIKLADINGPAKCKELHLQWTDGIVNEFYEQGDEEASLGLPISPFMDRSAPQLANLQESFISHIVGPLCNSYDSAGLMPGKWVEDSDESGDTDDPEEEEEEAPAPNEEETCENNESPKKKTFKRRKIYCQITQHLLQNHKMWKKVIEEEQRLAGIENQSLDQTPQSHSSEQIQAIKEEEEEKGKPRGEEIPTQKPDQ
Gamma-aminobutyric acid receptor subunit alpha-1, sequence (P62813 whole entry): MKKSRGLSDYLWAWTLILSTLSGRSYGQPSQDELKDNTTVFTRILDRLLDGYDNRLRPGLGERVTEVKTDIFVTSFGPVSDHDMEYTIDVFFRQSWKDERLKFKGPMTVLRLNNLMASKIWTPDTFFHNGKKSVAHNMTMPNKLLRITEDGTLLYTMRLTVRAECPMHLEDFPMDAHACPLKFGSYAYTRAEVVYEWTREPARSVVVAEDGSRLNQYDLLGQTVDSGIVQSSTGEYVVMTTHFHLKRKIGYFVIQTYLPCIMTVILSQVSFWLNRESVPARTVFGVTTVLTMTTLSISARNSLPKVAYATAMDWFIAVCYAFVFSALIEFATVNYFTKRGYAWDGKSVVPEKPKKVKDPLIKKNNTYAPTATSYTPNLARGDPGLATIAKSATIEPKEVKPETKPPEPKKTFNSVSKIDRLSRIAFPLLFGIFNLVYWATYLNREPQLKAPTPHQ

SMILES | AC50 [1] | AC50 [2] | AC50 [3] | AC50 [4] | AC50 [5] | AC50 (Vasopressin V2 receptor) | AC50 (Endothelin-1 receptor) | AC50 (Adenosine receptor A3) | AC50 (Motilin receptor)
CCC(=O)O[C@@H](O[P@](=O)(CCCCc1ccccc1)CC(=O)N1C[C@H](C2CCCCC2)C[C@H]1C(=O)O)C(C)C [FOSINOPRIL] | > 30 µM | > 30 µM | > 30 µM | > 30 µM | > 30 µM |  |  |  | 
CN(C)c1cc(CNCC(C)(C)C)c(O)c2c1C[C@H]1C[C@H]3[C@H](N(C)C)C(O)=C(C(N)=O)C(=O)[C@@]3(O)C(O)=C1C2=O [OMADACYCLINE] | > 30 µM | 29 µM | > 30 µM | > 30 µM | 25 µM | > 30 µM | > 30 µM | 25 µM | > 30 µM
CNC[C@H](O)c1cccc(O)c1 [PHENYLEPHRINE] |  | > 10 µM | > 30 µM | > 30 µM | > 10 µM | > 30 µM | > 30 µM | > 30 µM | > 10 µM
CN1CCN(CCCN2c3ccccc3Sc3ccc(S(=O)(=O)N(C)C)cc32)CC1 [THIOPROPERAZINE] | > 30 µM | 12 µM | > 30 µM | > 30 µM | > 30 µM |  |  |  | 
CC1(C)O[C@@H]2[C@@H](CO[C@@]3(COS(N)(=O)=O)OC(C)(C)O[C@@H]23)O1 [TOPIRAMATE] | > 10 µM | > 10 µM | > 30 µM | > 30 µM | > 10 µM | > 30 µM | > 30 µM | > 30 µM | > 10 µM
